Source: patent publication US6994991B1, “Identification of differentially methylated multiple drug resistance loci” (North Shore - Long Island Jewish Research Institute, priority 1998, dated 2006)
Like-named read-outs stand apart in the source and are kept apart here.

System: MCF7/AdrR cells
Assay: MTT viability assay of transfected drug resistant cells exposed to drug
Assay type: cell-based, human
Settings: for IC50: Homo sapiens; for sensitivity of cells expressing WTH3 to drug: MCF7/AdrR cells transfected with pcDNA/WTH3
Excerpt: Reversion of MDR phenotype by overexpression of WTH3, RAB6 or RAB6C in MCF7/AdrR cells. WTH3, RAB6 and RAB6C cDNAs were inserted into pcDNA1.1/Amp expression vectors (Invitrogen Corp.) and transfected into drug resistant MCF7/AdrR cells (Lipofect Amine Plus™; Life Technologies, Inc., (GIBCO)). Expression of the exogenous WTH3 (pcDNA/WTH3), RAB6 (pcDNA/RAB6) or RAB6C (pcDNA/RAB6C) genes in transfected cells was confirmed by RT-PCR. Control cells were provided by transfection with pcDNA1.1/Amp which contained no insert. Cells were exposed to various concentrations of doxorubicin and viablity was determined after 72 hours by MTT assay. […] Cells expressing RAB6 or RAB6C cDNAs were tested for sensitivity to doxorubicin. […] The drug resistant control cells were 3.2 (P<0.0001) times more resistant to the antitumor drug than pcDNA/RAB6C containing cells and 2.2 (P<0.0001) times more resistant to the antitumor drug than pcDNA/RAB6 containing cells.

IC50 (MCF7, 72 h, control cells transfected with pcDNA1.1/Amp (no insert), viability after 72 hours by MTT, read-out: Mean IC50± SD)	IC50 (MCF7, 72 h, pcDNA/RAB6C containing cells, viability after 72 hours by MTT, read-out: Mean IC50± SD)	IC50 (MCF7, 72 h, pcDNA/RAB6 containing cells, viability after 72 hours by MTT, read-out: Mean IC50± SD)	IC50 (MCF7, MCF7/AdrR cells carrying endogenously expressed RAB6C, read-out: IC50 for doxorubicin)	SMILES	sensitivity of cells expressing WTH3 to drug	resistance of control cells relative to pcDNA/RAB6C containing cells (control vs pcDNA/RAB6C cells, P<0.0001)	resistance of control cells relative to pcDNA/RAB6 containing cells (control vs pcDNA/RAB6 cells, P<0.0001)	sensitivity to doxorubicin compared to cells transfected with a control vector (drug resistant cells transfected with a vector which expresses WTH3, RAB6C, or RAB6)
4930 ± 300 nM	1530 ± 130 nM	2230 ± 170 nM	1000 to 2500 nM	COc1cccc2c1C(=O)c1c(O)c3c(c(O)c1C2=O)C[C@@](O)(C(=O)CO)C[C@@H]3O[C@H]1C[C@H](N)[C@H](O)[C@H](C)O1 [doxorubicin]	increased sensitivity	3.2 times	2.2 times	increased sensitivity
				CC[C@]1(O)C[C@H]2CN(CCc3c([nH]c4ccccc34)[C@@](C(=O)OC)(c3cc4c(cc3OC)N(C=O)[C@H]3[C@@](O)(C(=O)OC)[C@H](OC(C)=O)[C@]5(CC)C=CCN6CC[C@]43[C@@H]65)C2)C1 [vincristine]	increased sensitivity			
